From publication PMC6627779, “Experimental Approaches and Computational Modeling of Rat Serum Albumin and Its Interaction with Piperine” (International Journal of Molecular Sciences, 2019)

Target: T1, rat serum albumin (RSA) (Rattus norvegicus, UniProt P02770)
T1 construct: gene Alb
Experiment: Trp214 fluorescence quenching titration (steady-state, double-log Ka; IDF/Scatchard Kb […] ^−[…]), static mechanism confirmed by time-resolved fluorescence
Format: binding
Conditions: read-out: Ka (×10^4 M^-1) (converted)

T1 sequence (P02770 25-608): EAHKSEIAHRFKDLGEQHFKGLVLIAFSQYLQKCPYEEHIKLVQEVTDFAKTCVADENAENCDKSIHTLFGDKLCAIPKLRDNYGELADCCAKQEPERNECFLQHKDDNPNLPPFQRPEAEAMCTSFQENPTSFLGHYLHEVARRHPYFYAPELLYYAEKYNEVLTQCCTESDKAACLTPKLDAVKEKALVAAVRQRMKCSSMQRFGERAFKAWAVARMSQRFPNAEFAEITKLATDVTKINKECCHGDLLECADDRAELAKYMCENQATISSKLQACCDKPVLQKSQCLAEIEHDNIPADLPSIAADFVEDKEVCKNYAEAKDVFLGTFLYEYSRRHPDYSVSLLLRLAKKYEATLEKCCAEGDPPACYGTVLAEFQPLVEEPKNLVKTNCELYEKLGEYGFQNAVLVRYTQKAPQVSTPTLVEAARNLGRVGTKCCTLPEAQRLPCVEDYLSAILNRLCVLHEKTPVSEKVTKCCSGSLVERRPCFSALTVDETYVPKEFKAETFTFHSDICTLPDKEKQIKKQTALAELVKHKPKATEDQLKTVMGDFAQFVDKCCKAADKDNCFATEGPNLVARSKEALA

Compound: O=C(/C=C/C=C/c1ccc2c(c1)OCO2)N1CCCCC1 [piperine]
- Kd: 25.6 µM
